Experiments:
firefly luciferase = firefly luciferase (Photinus pyralis, UniProt P08659); experiment: Bioluminescent emission spectrum measurement; assay type: biochemical; conditions: ATP-Mg
Description: In a 200 μL polystyrene tube, potassium phosphate buffer solution (0.5 M, pH 8.0, 20 μl), substrate solution (2.5 mM, 20 μl), enzyme solution (20 μl), to and ATP-Mg solution (10 mM, 40 μl) were mixed, and emission spectrum measurement was performed. An enzyme solution with a concentration of 17 μM was used. Enzymes with a concentration of 1.7 μM for the firefly luciferin and of 170 μM for the phenol-type luciferin, however, were used. The exposure time for emission spectrum measurement was 60 seconds. For the firefly luciferin, however, the time was five seconds.

[1] = University of Tokyo luciferin derivative; cited from earlier work
[2] = reaction with firefly luciferase, substrate solution 2.5 mM, enzyme solution 17 μM, pH 8.0, exposure 60 seconds

Chain of firefly luciferase (P08659 whole entry): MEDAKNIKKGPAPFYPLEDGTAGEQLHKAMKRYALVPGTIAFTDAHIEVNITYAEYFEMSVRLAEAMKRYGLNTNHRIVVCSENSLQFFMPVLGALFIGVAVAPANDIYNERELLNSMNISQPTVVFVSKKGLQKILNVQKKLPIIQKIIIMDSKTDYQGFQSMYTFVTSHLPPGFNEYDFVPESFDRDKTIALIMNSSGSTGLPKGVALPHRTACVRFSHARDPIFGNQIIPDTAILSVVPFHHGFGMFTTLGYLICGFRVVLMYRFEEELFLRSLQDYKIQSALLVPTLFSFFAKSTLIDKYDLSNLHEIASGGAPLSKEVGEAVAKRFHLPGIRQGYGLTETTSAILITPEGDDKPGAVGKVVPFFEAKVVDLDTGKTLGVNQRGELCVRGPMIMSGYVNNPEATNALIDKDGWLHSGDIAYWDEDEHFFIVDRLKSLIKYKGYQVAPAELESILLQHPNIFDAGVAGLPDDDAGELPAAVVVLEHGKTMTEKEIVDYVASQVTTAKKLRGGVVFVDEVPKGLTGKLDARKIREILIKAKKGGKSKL

| SMILES | emission wavelength (firefly luciferase; [2]) | also measured |
| --- | --- | --- |
| C=CCc1c(O)ccc2nc(C3=N[C@@H](C(=O)O)CS3)sc12 [7-allyl-firefly luciferin 35, 7-allyl-firefly luciferin] | 605 nm |  |
| Nc1ccc2nc(C3=N[C@@H](C(=O)O)CS3)sc2c1 [Aminoluciferin] |  | emission wavelength [1]: approximately 610 nm |
| O=C(O)C1CSC(c2nc3ccc(O)cc3s2)=N1 (stereo not drawn) [Firefly luciferin] |  | emission wavelength (firefly luciferase; firefly luciferin: enzyme 1.7 μM, exposure five seconds, pH 8.0): 565 nm |
| C=CCc1c(O)ccc2cc(/C=C/C3=NC(C(=O)O)CS3)ccc12 (stereo not drawn) [compound 21] | approximately 690 nm | emission wavelength (firefly luciferase; reaction with firefly luciferase, substrate solution 2.5 mM, enzyme solution 17 μM, pH 8.0, exposure 60 seconds, listed as FIG. 2): 690 nm |
| O=C(O)[C@H]1CSC(/C=C/c2ccc3cc(O)ccc3c2)=N1 [compound 39] | 660 nm |  |

Reference: US8962854B2, “Luminescent substrate for luciferase” (The University of Electro-Communications, priority 2011, dated 2015)
